Measured values reported in PubChem BioAssay (NCI).
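How tested: cells in 96-well plates exposed to compound for 48 hours at five concentrations. GI50 = concentration required for 50% inhibition of growth. At the TGI there is no net growth.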

Columns and labels:
Test in all cases: NCI-60 cell line screen, 48 h
[1] = system: NCI-H226 lung
[2] = system: UACC-257 melanoma
[3] = system: U251 CNS
[4] = system: PC-3 prostate
[5] = system: NCI-H23 lung
[6] = system: SF-295 CNS
[7] = system: NCI-H522 lung
[8] = system: EKVX NSCLC
[9] = system: HCC-2998 colon
[10] = system: KM12 colon
[11] = system: RXF 393 renal
[12] = system: MDA-MB-231 breast
[13] = system: SNB-75 CNS
[14] = system: A549 NSCLC
[15] = system: HCT-116 colon
[16] = system: COLO 205 colon
[17] = system: OVCAR-4 ovarian
[18] = system: HT29 colon
[19] = system: UO-31 renal
[20] = system: LOX IMVI melanoma
[21] = system: HS 578T breast
[22] = system: OVCAR-8 ovarian
[23] = system: SNB-19 CNS
[24] = system: SK-MEL-2 melanoma
[25] = system: IGROV1 ovarian
[26] = system: HOP-62 NSCLC
[27] = system: BT-549 breast
[28] = system: HL-60(TB) leukemia
[29] = system: MALME-3M melanoma

With CN1CCN(Cc2ccc(NC(=O)c3cncc(C#Cc4cnc5ccc(OC6CCOCC6)nn45)c3)cc2C(F)(F)F)CC1 the GI50 [1] was 24.1 nM, the TGI [1] was 762 nM and the GI50 [2] was 215 nM. For the same molecule, the TGI [2] was 780 nM, the GI50 [3] was 142 nM and the TGI [3] was 527 nM. It also gave a GI50 [4] of 144 nM, a TGI [4] of 1120 nM and a GI50 [5] of 120 nM. The TGI [5] was 474 nM, the GI50 [6] was 145 nM and the TGI [6] was 1560 nM. The GI50 [7] was 88 nM, the TGI [7] was 182 nM and the GI50 [8] was 173 nM. It also gave a TGI [8] of 805 nM, a GI50 [9] of 149 nM and a TGI [9] of 457 nM. The GI50 [10] was 5 nM, the TGI [10] was 305 nM and the GI50 [11] was 96.5 nM. The TGI [11] was 288 nM, the GI50 [12] was 38 nM and the TGI [12] was 176 nM. The GI50 [13] was 17.8 nM, the TGI [13] was 209 nM and the GI50 [14] was 90.9 nM. The TGI [14] was 562 nM, the GI50 [15] was 37.5 nM and the TGI [15] was 228 nM. The GI50 [16] was 95.3 nM, the TGI [16] was 302 nM and the GI50 [17] was 151 nM. It also gave a TGI [17] of 1190 nM, a GI50 [18] of 73.2 nM and a TGI [18] of 317 nM. It also gave a GI50 [19] of 158 nM, a TGI [19] of 729 nM and a GI50 [20] of 71.9 nM. For the same molecule, the TGI [20] was 420 nM, the GI50 [21] was 105 nM and the TGI [21] was 648 nM. For the same molecule, the GI50 [22] was 132 nM, the TGI [22] was 604 nM and the GI50 [23] was 221 nM. The TGI [23] was 1640 nM, the GI50 [24] was 90.6 nM and the TGI [24] was 199 nM. The GI50 [25] was 56.2 nM, the TGI [25] was 503 nM and the GI50 [26] was 165 nM. For the same molecule, the TGI [26] was 953 nM, the GI50 [27] was 537 nM and the TGI [27] was 1510 nM. It also gave a GI50 [28] of 57.5 nM, a TGI [28] of 285 nM and a GI50 [29] of 69.4 nM. It also gave a TGI [29] of 382 nM.
